# Where two headings read alike, the source gives them in different places.
# Tests used:
# [1] = system: human colon tumor (HCT116); assay: In vitro microdilution inhibition, HCT116; type: cell-based; conditions: HCT-116, 72 hours, 50% of cells killed
# From the text: (§1) As shown in Table III the compounds of the present invention exert an in vitro antitumor effect. The following cells lines were employed: human lung (A549); resistant human lung with low topo II activity (A549-VP); murine melanoma (B16); human colon tumor (HCT116); human colon tumor with elevated p170 levels (HCTVM); human colon tumor with low topo II activity (HCTVP); and another human colon carcinoma cell line (Moser). In the Table, the designation "NT" indicates the compound was not tested against the specified cell line. The cell lines were maintained in continuous culture at 37°, 5% CO2 and high humidity. Cells were harvested in log phase growth and suspended at concentration of 25,000 cells/mL. A […] aliquot was then added to each well (i.e., 3,750 cells per well) of a 96-well flat bottom plate and the cells were allowed to attach over a 24 hour period. After this 24 hour incubation, a 50 μL sample of the specified compound was added to the first (top) well of each column, and the remaining wells of each column serially diluted, 1:4, and allowed to incubate for 72 hours at 37° C., 5% CO2 and high humidity. Following incubation, 50 μL of freshly prepared stain solution was added to each well. After a 3 hour incubation at room temperature, absorbance was read at 450 nm on a microplate reader to determine the compound concentration at which 50% of the cells were killed, such concentration referred to as the "IC50 ".
# murine melanoma (B16) = assay: In vitro microdilution inhibition, B16; type: cell-based; conditions: Mus musculus; B16, 72 hours, 50% of cells killed
# From the text: as §1
# [2] = system: resistant human lung with low topo II activity (A549-VP); assay: In vitro microdilution inhibition, resistant human lung A549-VP; type: cell-based; conditions: A549VP, 72 hours, 50% of cells killed
# From the text: as §1
# human lung (A549) = assay: In vitro microdilution inhibition, human lung A549; type: cell-based; conditions: A549, 72 hours, 50% of cells killed
# From the text: as §1
# p388 murine leukemia = assay: In vivo activity against p388 murine leukemia in an acute mouse model; conditions: for AWC (average weight change per mouse): before treatment to day five
# Description: CDF1 mice of both sexes weighing between 16 and 25 gm. were used, with a 2 gm. weight range and same sex and source used per experiment. BDF1 mice also were used with the same weight, sex and source parameters. Control and test animals were injected interperitoneally with suspension of 1×10^6 p388 murine leukemia cells (0.5 mL dose) on day 0. Groups of 4-6 mice were used for each dosage amount they were treated with 5 doses on day one. A group of ten saline treated control mice was included in each set of experiments. A 30 day protocol was employed with mean survival time in days being determined for each group of mice with the number of survivors at the end of the 30 day period being noted. The mice were weighed before treatment and again on day five. The values listed for average weight change (AWC) is the average weight change per mouse at the specified dose. The change in weight was taken as a measure of drug toxicity. A loss in weight of up to 2 grams is not considered excessive. The results were determined in terms of % T/C which is the ratio of the mean survival time of the treated group to the mean survival time of the saline treated group times 100.
# [3] = system: human colon carcinoma cell line (Moser); assay: In vitro microdilution inhibition, Moser; type: cell-based; conditions: 72 hours, 50% of cells killed
# From the text: as §1
# [4] = system: human colon tumor with low topo II activity (HCTVP); assay: In vitro microdilution inhibition, HCTVP; type: cell-based; conditions: 72 hours, 50% of cells killed
# From the text: as §1
# [5] = system: human colon tumor with elevated p170 levels (HCTVM); assay: In vitro microdilution inhibition, HCTVM; type: cell-based; conditions: 72 hours, 50% of cells killed
# From the text: as §1
# L1210 mouse leukemia = conditions: in vitro; cited from earlier work
# p388 mouse leukemia = conditions: in vitro; cited from earlier work
Structure (SMILES),IC50 [1],IC50 (murine melanoma (B16)),IC50 [2],IC50 (human lung (A549)),"AWC (average weight change per mouse) (p388 murine leukemia; CDF1 (female only), 5 mg/kg)","AWC (average weight change per mouse) (p388 murine leukemia; CDF1 (female only), 15 mg/kg)","% T/C (mean survival time treated/control) (p388 murine leukemia; CDF1 (female only), 45 mg/kg)","response vs control in vivo at 5 mg/kg (p388 murine leukemia; Mus musculus, P388, 720 h, CDF1 (female only), 5 mg/kg, read-out: % T/C (mean survival time treated/control))","response vs control in vivo at 15 mg/kg (p388 murine leukemia; Mus musculus, P388, 720 h, CDF1 (female only), 15 mg/kg, read-out: % T/C (mean survival time treated/control))",IC50 [3],IC50 [4],"AWC (average weight change per mouse) (p388 murine leukemia; BDF1 (female only), 5 mg/kg)","AWC (average weight change per mouse) (p388 murine leukemia; BDF1 (female only), 15 mg/kg)","AWC (average weight change per mouse) (p388 murine leukemia; BDF1 (female only), 45 mg/kg)","response vs control in vivo at 5 mg/kg (p388 murine leukemia; Mus musculus, P388, 720 h, BDF1 (female only), 5 mg/kg, read-out: % T/C (mean survival time treated/control))","response vs control in vivo at 15 mg/kg (p388 murine leukemia; Mus musculus, P388, 720 h, BDF1 (female only), 15 mg/kg, read-out: % T/C (mean survival time treated/control))","response vs control in vivo at 45 mg/kg (p388 murine leukemia; Mus musculus, P388, 720 h, BDF1 (female only), 45 mg/kg, read-out: % T/C (mean survival time treated/control))",IC50 [5],cytotoxicity (L1210 mouse leukemia),cytotoxicity (p388 mouse leukemia)
"CCCCCc1cc2cc3c(c(OCOC)c2c(OC)n1)C1(CC3)C(=O)c2c(O)c3c(c(O)c2C1=O)C(=O)C=CC3=O [Example 7, 6',7'-Dihydro-1-methoxy-9'-(methoxymethoxy)-3'-(n-pentyl)-spiro[2H-benz[f]indene-2,8'-[8H]cyclopent[g]isoquinoline]-1,3,5,8-tetrone]",1.2 µg/mL,7 µg/mL,8.5 µg/mL,5 µg/mL,-2.8,-3.8,Toxic,150%,150%,5.9 µg/mL,1.2 µg/mL,–,–,–,–,–,–,–,–,–
"CCCCCc1cc2cc3c(c(O)c2c(=O)[nH]1)C1(CC3)C(=O)c2c(O)c3c(c(O)c2C1=O)C(=O)C=CC3=O [Example 8, 2',6',7'-Trihydro-4,9,9'-trihydroxy-3'-(n-pentyl)-spiro[2H-benz[f]-indene-2,8'-[8H]cyclopent[g]isoquinoline]-1,1',3,5,8-pentone]",14.5 µg/mL,18 µg/mL,26.5 µg/mL,24.5 µg/mL,–,–,–,–,–,18.3 µg/mL,–,1.0,-1.5,-2.8,125%,135%,145%,–,–,–
"CNC1=CC(=O)c2c(O)c3c(c(O)c2C1=O)C(=O)C1(CCc2cccc(OCOC)c21)C3=O (centres unmarked) [Example 12, 2',3'-Dihydro-6-methylamino-7'-(methoxymethoxy)-1H-indene-1'-spiro-2-[4,9-dihydroxy-2H-benz[f]-indene-1,3,5,8-tetrone]]",0.03 µg/mL,0.03 µg/mL,0.05 µg/mL,< 0.03 µg/mL,–,–,–,–,–,0.03 µg/mL,0.03 µg/mL,–,–,–,–,–,–,0.05 µg/mL,–,–
"COCOc1cccc2c1C1(CC2)C(=O)c2c(O)c3c(c(O)c2C1=O)C(=O)C(Nc1cccc(C(=O)O)c1)=CC3=O (centres unmarked) [Example 20, 2',3'-Dihydro-7'-(methoxymethoxy)-1H-indene-1,-spiro-2-[6-(3-carboxyanilino)-4,9-dihydroxy-2H-benz[f]indene-1,2,5,8-tetrone]]",> 16 µg/mL,> 16 µg/mL,> 16 µg/mL,> 16 µg/mL,–,–,–,–,–,> 16 µg/mL,> 16 µg/mL,–,–,–,–,–,–,> 16 µg/mL,–,–
C/C=C/C=C/c1cc2cc3c(c(O)c2c(=O)[nH]1)C1(CC3)C(=O)c2c(O)c3c(c(O)c2C1=O)C(=O)C(OC)=CC3=O (centres unmarked) [fredericamycin A],–,–,–,–,–,–,–,–,–,–,–,–,–,–,–,–,–,–,comparable to doxorubicin and actinomycin,comparable to doxorubicin and actinomycin

# Source: patent US5166208A, “Fredericamycin A derivatives” (Boston College, priority 1991, dated 1992)
